# Test results published in publication PMC7901650, “Garcinoic Acid Is a Natural and Selective Agonist of Pregnane X Receptor” (Journal of Medicinal Chemistry, 2020).
# How the values were obtained:
# RAR = assay: AlphaScreen nuclear receptor panel, RAR; format: biochemical, human
# Source text: (§1) Ligand binding activity of GA (1) was explored via AlphaScreen technology over a panel of NRs that, along with hPXR (Figure 1A), included major human endocrine and metabolic receptors, such as the retinoid X receptor (RXR), constitutive androstane receptor (CAR), farnesoid X receptor (FXR), vitamin D receptor (VDR), liver X receptor (LXR) forms α and β, and the PPAR isoforms α, δ, and γ (see Figure S1). GA (1) was compared to its analogue δ-tocotrienol (5), the vitamers 3 and 4, their short-chain metabolites (SCMs) α-CEHC (10) and γ-CEHC (11), and the LCMs 2 and 8 (Chart 1). The test was performed in the presence of reference standard agonists for the different NRs.
# (§2) The activity of nuclear receptors was determined using AlphaScreen technology, a recruitment coactivator assay previously described.[56]
# (§3) (A) The test was carried out at 10 μM compound final concentration. Ligand binding to nuclear receptors was expressed as luminescence units. […] Vehicle was assessed to obtain a measure of background signal (basal evaluation). […] In presence of the ligand, the nuclear receptor LBD undergoes conformational changes, binds to the coactivator and the chemical energy is transferred from donor to acceptor beads in order to produce a signal, i.e. luminescence; in this case the compounds behaves as agonist, changing the conformation of the receptor to recruit the coactivator. […]
# FXR = biological target: T1, FXR (Homo sapiens, UniProt Q96RI1); assay: AlphaScreen nuclear receptor panel, FXR; format: biochemical
# T1 construct: GST-LBD
# T1 sequence (Q96RI1 262-486 limits assumed): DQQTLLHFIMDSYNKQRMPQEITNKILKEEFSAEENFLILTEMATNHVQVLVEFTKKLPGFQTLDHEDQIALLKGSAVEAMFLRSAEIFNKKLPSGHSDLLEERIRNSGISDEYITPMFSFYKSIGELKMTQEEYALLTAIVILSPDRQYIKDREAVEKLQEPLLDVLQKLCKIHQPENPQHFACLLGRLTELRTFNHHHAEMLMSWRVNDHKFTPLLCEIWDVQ
# Source text: as §1, §2, §3
# hPXR = biological target: T2, hPXR (Homo sapiens, UniProt O75469); assay: AlphaScreen coactivator recruitment assay, PXR; format: biochemical; conditions: 10 μM compound concentration
# T2 construct: GST-LBD
# T2 sequence (O75469 146-433 limits assumed): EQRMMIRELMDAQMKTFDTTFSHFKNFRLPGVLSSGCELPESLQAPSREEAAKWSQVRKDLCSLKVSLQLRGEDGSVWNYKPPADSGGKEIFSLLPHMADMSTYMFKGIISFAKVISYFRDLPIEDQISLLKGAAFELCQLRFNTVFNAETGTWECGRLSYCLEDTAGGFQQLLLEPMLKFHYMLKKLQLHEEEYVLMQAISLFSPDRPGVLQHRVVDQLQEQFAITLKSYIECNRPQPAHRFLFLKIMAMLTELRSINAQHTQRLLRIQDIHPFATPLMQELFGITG
# RXR = assay: AlphaScreen nuclear receptor panel, RXR; format: biochemical, human
# Source text: as §1, §2, §3
structure (smiles),measurement,setting,value
"C/C(=C\CC/C(C)=C/CC[C@]1(C)CCc2cc(O)cc(C)c2O1)CC/C=C(\C)C(=O)O [GA (1), (2E,6E,10E)-13-[(2R)-6-hydroxy-2,8-dimethyl-chroman-2-yl]-2,6,10-trimethyltrideca-2,6,10-trienoic acid]",Response on RAR,RAR,No response
same,Response on FXR,FXR,No response
same,"PXR agonist activity (AlphaScreen, single concentration)",hPXR,significant PXR agonist activity
same,Response on RXR,RXR,No response
